From PubChem BioAssay (NCI)
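Compound exposure: 48 hours, 5 concentrations, 96-well plates. GI50 = concentration required for 50% inhibition of growth. TGI: total growth inhibition.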

Key:
Experiment in all cases: NCI tumour cell line growth inhibition, 48 h
786-0 renal = test system: 786-0 renal
A549 NSCLC = test system: A549 NSCLC
ACHN renal = test system: ACHN renal
BT-549 breast = test system: BT-549 breast
CAKI-1 renal = test system: CAKI-1 renal
CCRF-CEM leukemia = test system: CCRF-CEM leukemia
COLO 205 colon = test system: COLO 205 colon
DU-145 prostate = test system: DU-145 prostate
EKVX NSCLC = test system: EKVX NSCLC
HCC-2998 colon = test system: HCC-2998 colon
HCT-116 colon = test system: HCT-116 colon
HCT-15 colon = test system: HCT-15 colon
HL-60(TB) leukemia = test system: HL-60(TB) leukemia
HOP-62 NSCLC = test system: HOP-62 NSCLC
HOP-92 NSCLC = test system: HOP-92 NSCLC
HS 578T breast = test system: HS 578T breast
HT29 colon = test system: HT29 colon
IGROV1 ovarian = test system: IGROV1 ovarian
K-562 leukemia = test system: K-562 leukemia
KM12 colon = test system: KM12 colon
LOX IMVI melanoma = test system: LOX IMVI melanoma
M14 melanoma = test system: M14 melanoma
MALME-3M melanoma = test system: MALME-3M melanoma
MCF7 breast = test system: MCF7 breast
MDA-MB-231 breast = test system: MDA-MB-231 breast
MDA-MB-435 = test system: MDA-MB-435
MOLT-4 leukemia = test system: MOLT-4 leukemia
NCI-H226 lung = test system: NCI-H226 lung
NCI-H23 lung = test system: NCI-H23 lung

SMILES: COc1cnc2c(c1)C(=O)c1c-2n(CCCBr)c(=O)c2cc([N+](=O)[O-])ccc12
- GI50 (786-0 renal): 223 nM
- TGI (786-0 renal): 716 nM
- GI50 (A549 NSCLC): 347 nM
- TGI (A549 NSCLC): 6850 nM
- GI50 (ACHN renal): 87.8 nM
- TGI (ACHN renal): 3140 nM
- GI50 (BT-549 breast): 519 nM
- TGI (BT-549 breast): 9890 nM
- GI50 (CAKI-1 renal): 45.9 nM
- TGI (CAKI-1 renal): 3050 nM
- GI50 (CCRF-CEM leukemia): 57.5 nM
- TGI (CCRF-CEM leukemia): 17800 nM
- GI50 (COLO 205 colon): 259 nM
- TGI (COLO 205 colon): 2410 nM
- GI50 (DU-145 prostate): 200 nM
- TGI (DU-145 prostate): 9090 nM
- GI50 (EKVX NSCLC): 1270 nM
- TGI (EKVX NSCLC): 10700 nM
- GI50 (HCC-2998 colon): 386 nM
- TGI (HCC-2998 colon): 10200 nM
- GI50 (HCT-116 colon): 84.9 nM
- TGI (HCT-116 colon): 1700 nM
- GI50 (HCT-15 colon): 350 nM
- TGI (HCT-15 colon): 15300 nM
- GI50 (HL-60(TB) leukemia): 310 nM
- TGI (HL-60(TB) leukemia): 53000 nM
- GI50 (HOP-62 NSCLC): 57.8 nM
- TGI (HOP-62 NSCLC): 2600 nM
- GI50 (HOP-92 NSCLC): 1770 nM
- TGI (HOP-92 NSCLC): 13700 nM
- GI50 (HS 578T breast): 2550 nM
- TGI (HS 578T breast): 40100 nM
- GI50 (HT29 colon): 202 nM
- TGI (HT29 colon): 23100 nM
- GI50 (IGROV1 ovarian): 163 nM
- TGI (IGROV1 ovarian): 2350 nM
- GI50 (K-562 leukemia): 255 nM
- TGI (K-562 leukemia): > 100000 nM
- GI50 (KM12 colon): 375 nM
- TGI (KM12 colon): 8770 nM
- GI50 (LOX IMVI melanoma): 75 nM
- TGI (LOX IMVI melanoma): 549 nM
- GI50 (M14 melanoma): 140 nM
- TGI (M14 melanoma): 2120 nM
- GI50 (MALME-3M melanoma): 352 nM
- TGI (MALME-3M melanoma): 2020 nM
- GI50 (MCF7 breast): 45.9 nM
- TGI (MCF7 breast): 1200 nM
- GI50 (MDA-MB-231 breast): 2580 nM
- TGI (MDA-MB-231 breast): 31500 nM
- GI50 (MDA-MB-435): 474 nM
- TGI (MDA-MB-435): 5040 nM
- GI50 (MOLT-4 leukemia): 52 nM
- TGI (MOLT-4 leukemia): 10200 nM
- GI50 (NCI-H226 lung): 499 nM
- TGI (NCI-H226 lung): 3750 nM
- GI50 (NCI-H23 lung): 218 nM
